According to article PMC12858405, “Ideal efficacy photoswitching for chromocontrol of TRPC4/5 channel functions in live tissues” (Nature Chemical Biology, 2026):

Experiments:
[1] = Stability in DTT-containing buffers (HPLC analysis); assay type: physicochemical; conditions: confirmed by HPLC analysis
Excerpt: Müller, Niemeyer, et al., Schaefer & Thorn-Seshold 2025: Ideal Efficacy Photoswitching of TRPC4/5 in Tissue 1.4 Supplementary Note 4: Structural Biology and TRP Selectivity
We prepared and acquired TRPC5:E/Z-AzHC samples in one lab, and TRPC4:E/Z-AzPico independently in another, which was useful for several plausibility checks. (1) There are additional lipid densities in the pockets that are present in both TRPC4 and TRPC5, and the changes to the lipid densities in the EM maps between E and Z isomers are similar in TRPC4 and TRPC5 as well: so these changes are not dependent on protein, nature of amphipol used, or lab in which the data were obtained/processed, but are rather inherent features of the system. (2) The positions of the distal rings which are much less-well-resolved than the rest of the ligand, were independently best aligned for the E and Z isomers, and in each case found to be Z-buried vs. E-projected, which gives more confidence in this structure-based analysis. (3) Identical deleterious effects of DTT were found in each lab, and removing it removed those problems.
1.4.1 Detailed Commentary: hTRPC5:E/Z-AzHC […]
We determined high-resolution structures of hTRPC5:(E)-AzHC (2.60 Å) and hTRPC5:(Z)-AzHC (2.90 Å) without applying symmetry (Fig. 3; Supplementary Fig. 4-5 and 15-18; Supplementary […]

[2] = test system: Th+ neurons of Th-GCaMP6f-ΔTrpc5 mice; assay: GCaMP6f Ca2+ imaging of Th+ neurons in arcuate nucleus brain slices with 355 nm photoswitching, Th-GCaMP6f-ΔTrpc5 (5ko) mice
Excerpt: slices through the ARC of mice expressing the Ca2+ indicator GCaMP6f in Th+ neurons (Fig. 4),
we investigated (1) whether Ca2+ responses at endogenous TRPC5 expression levels can be
TRPC5 expression using TRPC5-deficient brain slices, (3) whether a dose dependence could be
detected, and (4) whether there are properties in channel activity that can be distinguished between
concentration-response measurements (Fig. 5d).

Cn1c(=O)n(CCCO)c(=O)c2c1nc(Oc1ccc(N=Nc3ccccc3)c(Cl)c1)n2Cc1ccc(Cl)cc1 [AzHC]
Stability in DTT-containing buffers [1]: degrades
Ca2+ photoresponse in TRPC5-knockout slices ([2]; 500 nM, 355 nm pulse): did not respond
Change in spontaneous Ca2+ activity in TRPC5-deficient Th+ neurons vs before UV ([2]; 1 µM): no change
